Measurements: the supplement of paper PMC10307832

Legend:
Assay in all cases: relative viability (nuclei count vs DMSO), 5 days (fraction); higher = more cells survive
ABC-1 = tested on: ABC-1
How it was run: (§1)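 Medians of duplicate plates are given as relative viability. That measure is the nuclei count in treated wells divided by the count in vehicle wells. Counts were taken on 4× images of lung cancer cell lines in 1536-well plates, 5 days after pin-tool dosing the day after seeding with one drug alone or a fixed anchor-drug dose plus five library-drug doses (not always all listed) in √10 steps.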

CAL-12T = tested on: CAL-12T
How it was run: as §1

COR-L 105 = tested on: COR-L 105
How it was run: as §1

ChaGo-K-1 = tested on: ChaGo-K-1
How it was run: as §1

EMC-BAC-2 = tested on: EMC-BAC-2
How it was run: as §1

EPLC-272H = tested on: EPLC-272H
How it was run: as §1

HCC-15 = tested on: HCC-15
How it was run: as §1

HCC-78 = tested on: HCC-78
How it was run: as §1

HOP-62 = tested on: HOP-62
How it was run: as §1

LXF-289 = tested on: LXF-289
How it was run: as §1

NCI-H1666 = tested on: NCI-H1666
How it was run: as §1

NCI-H1755 = tested on: NCI-H1755
How it was run: as §1

NCI-H1915 = tested on: NCI-H1915
How it was run: as §1

NCI-H1975 = tested on: NCI-H1975
How it was run: as §1

NCI-H1993 = tested on: NCI-H1993
How it was run: as §1

NCI-H2023 = tested on: NCI-H2023
How it was run: as §1

NCI-H2085 = tested on: NCI-H2085
How it was run: as §1

NCI-H2126 = tested on: NCI-H2126
How it was run: as §1

NCI-H3122 = tested on: NCI-H3122
How it was run: as §1

NCI-H322M = tested on: NCI-H322M
How it was run: as §1

NCI-H358 = tested on: NCI-H358
How it was run: as §1

NCI-H441 = tested on: NCI-H441
How it was run: as §1

NCI-H522 = tested on: NCI-H522
How it was run: as §1

UMC-11 = tested on: UMC-11
How it was run: as §1

Work on Clc1ccc(Nc2nnc(Cc3ccncc3)c3ccccc23)cc1 [Vatalanib] + Cc1cc(Nc2cc(N3CCN(C)CC3)nc(Sc3ccc(NC(=O)C4CC4)cc3)n2)n[nH]1 [Tozasertib] (partner 0.1 µM) yielded a relative viability (ABC-1; first compound 0.04 µM) of 0.184, a relative viability (ABC-1; first compound 0.1265 µM) of 0.166 and a relative viability (ABC-1; first compound 1.265 µM) of 0.177. For the same compound, the relative viability (ABC-1; first compound 4 µM) was 0.207, the relative viability (CAL-12T; first compound 0.04 µM) was 0.307 and the relative viability (CAL-12T; first compound 0.1265 µM) was 0.297. It also gave a relative viability (CAL-12T; first compound 0.4 µM) of 0.304, a relative viability (CAL-12T; first compound 1.265 µM) of 0.266 and a relative viability (CAL-12T; first compound 4 µM) of 0.277. It also gave a relative viability (COR-L 105; first compound 0.04 µM) of 0.339, a relative viability (COR-L 105; first compound 0.1265 µM) of 0.344 and a relative viability (COR-L 105; first compound 0.4 µM) of 0.451. For the same compound, the relative viability (COR-L 105; first compound 1.265 µM) was 0.35, the relative viability (COR-L 105; first compound 4 µM) was 0.362 and the relative viability (ChaGo-K-1; first compound 0.04 µM) was 0.241. For the same compound, the relative viability (ChaGo-K-1; first compound 0.1265 µM) was 0.231, the relative viability (ChaGo-K-1; first compound 0.4 µM) was 0.242 and the relative viability (ChaGo-K-1; first compound 1.265 µM) was 0.235. For the same compound, the relative viability (ChaGo-K-1; first compound 4 µM) was 0.235, the relative viability (EMC-BAC-2; first compound 0.04 µM) was 0.218 and the relative viability (EMC-BAC-2; first compound 0.1265 µM) was 0.302. For the same compound, the relative viability (EMC-BAC-2; first compound 0.4 µM) was 0.308, the relative viability (EMC-BAC-2; first compound 1.265 µM) was 0.264 and the relative viability (EMC-BAC-2; first compound 4 µM) was 0.305. The relative viability (EPLC-272H; first compound 0.04 µM) was 0.319, the relative viability (EPLC-272H; first compound 0.1265 µM) was 0.271 and the relative viability (EPLC-272H; first compound 0.4 µM) was 0.411. For the same compound, the relative viability (EPLC-272H; first compound 1.265 µM) was 0.324, the relative viability (EPLC-272H; first compound 4 µM) was 0.249 and the relative viability (HCC-15; first compound 0.04 µM) was 0.419. The relative viability (HCC-15; first compound 0.1265 µM) was 0.465, the relative viability (HCC-15; first compound 0.4 µM) was 0.478 and the relative viability (HCC-15; first compound 1.265 µM) was 0.446. The relative viability (HCC-15; first compound 4 µM) was 0.426, the relative viability (HCC-78; first compound 0.04 µM) was 0.447 and the relative viability (HCC-78; first compound 0.1265 µM) was 0.494. It also gave a relative viability (HCC-78; first compound 0.4 µM) of 0.559, a relative viability (HCC-78; first compound 1.265 µM) of 0.436 and a relative viability (HCC-78; first compound 4 µM) of 0.493. It also gave a relative viability (HOP-62; first compound 0.04 µM) of 0.401, a relative viability (HOP-62; first compound 0.1265 µM) of 0.335 and a relative viability (HOP-62; first compound 0.4 µM) of 0.396. The relative viability (HOP-62; first compound 1.265 µM) was 0.336, the relative viability (HOP-62; first compound 4 µM) was 0.405 and the relative viability (LXF-289; first compound 0.04 µM) was 0.201. The relative viability (LXF-289; first compound 0.1265 µM) was 0.168, the relative viability (LXF-289; first compound 0.4 µM) was 0.229 and the relative viability (LXF-289; first compound 1.265 µM) was 0.192. The relative viability (LXF-289; first compound 4 µM) was 0.212, the relative viability (NCI-H1666; first compound 0.04 µM) was 0.617 and the relative viability (NCI-H1666; first compound 0.1265 µM) was 0.569. For the same compound, the relative viability (NCI-H1666; first compound 0.4 µM) was 0.615, the relative viability (NCI-H1666; first compound 1.265 µM) was 0.568 and the relative viability (NCI-H1666; first compound 4 µM) was 0.55. The relative viability (NCI-H1755; first compound 0.04 µM) was 0.587, the relative viability (NCI-H1755; first compound 0.1265 µM) was 0.612 and the relative viability (NCI-H1755; first compound 0.4 µM) was 0.701. It also gave a relative viability (NCI-H1755; first compound 1.265 µM) of 0.58, a relative viability (NCI-H1755; first compound 4 µM) of 0.628 and a relative viability (NCI-H1915; first compound 0.04 µM) of 0.457. It also gave a relative viability (NCI-H1915; first compound 0.1265 µM) of 0.413, a relative viability (NCI-H1915; first compound 0.4 µM) of 0.468 and a relative viability (NCI-H1915; first compound 1.265 µM) of 0.385. The relative viability (NCI-H1915; first compound 4 µM) was 0.442, the relative viability (NCI-H1975; first compound 0.04 µM) was 0.835 and the relative viability (NCI-H1975; first compound 0.1265 µM) was 0.687. It also gave a relative viability (NCI-H1975; first compound 0.4 µM) of 0.726, a relative viability (NCI-H1975; first compound 1.265 µM) of 0.535 and a relative viability (NCI-H1975; first compound 4 µM) of 0.424. For the same compound, the relative viability (NCI-H1993; first compound 0.04 µM) was 0.563, the relative viability (NCI-H1993; first compound 0.1265 µM) was 0.566 and the relative viability (NCI-H1993; first compound 0.4 µM) was 0.608. For the same compound, the relative viability (NCI-H1993; first compound 1.265 µM) was 0.542, the relative viability (NCI-H1993; first compound 4 µM) was 0.592 and the relative viability (NCI-H2023; first compound 0.04 µM) was 0.374. It also gave a relative viability (NCI-H2023; first compound 0.1265 µM) of 0.377, a relative viability (NCI-H2023; first compound 0.4 µM) of 0.424 and a relative viability (NCI-H2023; first compound 1.265 µM) of 0.287. For the same compound, the relative viability (NCI-H2023; first compound 4 µM) was 0.241, the relative viability (NCI-H2085; first compound 0.04 µM) was 0.796 and the relative viability (NCI-H2085; first compound 0.1265 µM) was 0.831. It also gave a relative viability (NCI-H2085; first compound 0.4 µM) of 0.829, a relative viability (NCI-H2085; first compound 1.265 µM) of 0.744 and a relative viability (NCI-H2085; first compound 4 µM) of 0.637. The relative viability (NCI-H2126; first compound 0.04 µM) was 0.808, the relative viability (NCI-H2126; first compound 0.1265 µM) was 0.769 and the relative viability (NCI-H2126; first compound 0.4 µM) was 0.829. For the same compound, the relative viability (NCI-H2126; first compound 1.265 µM) was 0.805, the relative viability (NCI-H2126; first compound 4 µM) was 0.82 and the relative viability (NCI-H3122; first compound 0.04 µM) was 0.401. For the same compound, the relative viability (NCI-H3122; first compound 0.1265 µM) was 0.358, the relative viability (NCI-H3122; first compound 1.265 µM) was 0.378 and the relative viability (NCI-H3122; first compound 4 µM) was 0.385. For the same compound, the relative viability (NCI-H322M; first compound 0.04 µM) was 0.446, the relative viability (NCI-H322M; first compound 0.1265 µM) was 0.441 and the relative viability (NCI-H322M; first compound 0.4 µM) was 0.553. For the same compound, the relative viability (NCI-H322M; first compound 1.265 µM) was 0.479, the relative viability (NCI-H322M; first compound 4 µM) was 0.463 and the relative viability (NCI-H358; first compound 0.04 µM) was 0.0969. It also gave a relative viability (NCI-H358; first compound 0.1265 µM) of 0.0902, a relative viability (NCI-H358; first compound 0.4 µM) of 0.08 and a relative viability (NCI-H358; first compound 1.265 µM) of 0.108. It also gave a relative viability (NCI-H358; first compound 4 µM) of 0.0997, a relative viability (NCI-H441; first compound 0.04 µM) of 0.847 and a relative viability (NCI-H441; first compound 0.1265 µM) of 0.746. The relative viability (NCI-H441; first compound 0.4 µM) was 0.643, the relative viability (NCI-H441; first compound 1.265 µM) was 0.659 and the relative viability (NCI-H441; first compound 4 µM) was 0.598. The relative viability (NCI-H522; first compound 0.04 µM) was 0.565, the relative viability (NCI-H522; first compound 0.1265 µM) was 0.508 and the relative viability (NCI-H522; first compound 0.4 µM) was 0.636. It also gave a relative viability (NCI-H522; first compound 1.265 µM) of 0.57, a relative viability (NCI-H522; first compound 4 µM) of 0.477 and a relative viability (UMC-11; first compound 0.04 µM) of 0.198. The relative viability (UMC-11; first compound 0.1265 µM) was 0.206, the relative viability (UMC-11; first compound 0.4 µM) was 0.147 and the relative viability (UMC-11; first compound 1.265 µM) was 0.214. It also gave a relative viability (UMC-11; first compound 4 µM) of 0.205.
